From US10780074B2, “Compounds and uses thereof” (Sunovion Pharmaceuticals Inc., priority 2017, dated 2020)
Structures can show the parent of a compound that is named as a salt.

What follows are compounds tested on behaviors of compound-treated mice (assay: Neuropharmacological Assay (SmartCube)). Settings: Mus musculus, ip, 0.25 h, dose having 50% or more total activity in SmartCube, i.p., read-out: MED (minimal effective dose).
Format: in vivo
Summary of the method: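 Behavioral signatures were captured automatically by video, and each drug class received a probability for the best of three i.p. doses given 15 min pre-test (vehicle: Pharmasolve/PEG/propylene glycol). Potency is given as MED, the lowest mpk dose (typically 0.3–30) reaching 50% or more total activity.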

Row | Compound | minimal effective dose
1 | NCC1OCCc2c(-c3cnoc3)cccc21 (centres unmarked) [Compound 64, (5-(Isoxazol-4-yl)isochroman-1-yl)methanamine hydrochloride salt] | 3 to 10 mg/kg
2 | CNCC1OCCc2c(-c3cnoc3)cccc21 (centres unmarked) [Compound 65, 1-(5-(Isoxazol-4-yl)isochroman-1-yl)-N-methylmethanamine hydrochloride salt] | 3 to 10 mg/kg
3 | CNC[C@@H]1OCCc2c(-c3ccno3)cccc21 [Compound 94, (R)-1-(5-(Isoxazol-5-yl)isochroman-1-yl)-N-methylmethanamine] | 10 to 30 mg/kg
4 | CNC[C@H]1OCCc2c(-c3ccno3)cccc21 [Compound 95, (S)-1-(5-(Isoxazol-5-yl)isochroman-1-yl)-N-methylmethanamine] | ≤ 3 mg/kg
5 | NC[C@@H]1OCCc2c(-c3cocn3)cccc21 [Compound 100, (R)-(5-(oxazol-4-yl)isochroman-1-yl)methanamine HCl salt] | 3 to 10 mg/kg

Same assay, conditions: i.p. 15 min before behavioral test, most efficacious dose(s) of 3 doses

Row | Compound | AD: ADHD (probability that activity matches class) | AG: analgesic (probability that activity matches class) | AX: anxiolytic (probability that activity matches class) | CE: cognitive enhancer (probability that activity matches class) | DP: anti-depressant (probability that activity matches class) | MS: mood stabilizer (probability that activity matches class) | PS: anti-psychotic (probability that activity matches class) | SD: sedative hypnotic (probability that activity matches class) | UN: uncharacterized CNS activity (probability that activity matches class)
6 | NCC1OCCc2c(-c3cnoc3)cccc21 (centres unmarked) [Compound 64, (5-(Isoxazol-4-yl)isochroman-1-yl)methanamine hydrochloride salt] | + (LOQ ≤ + <5%) | + (LOQ ≤ + <5%) | + (LOQ ≤ + <5%) | + (LOQ ≤ + <5%) | ++++ (50% ≤ ++++) | + (LOQ ≤ + <5%) | + (LOQ ≤ + <5%) | + (LOQ ≤ + <5%) | ++ (5% ≤ ++ <25%)
7 | CNCC1OCCc2c(-c3cnoc3)cccc21 (centres unmarked) [Compound 65, 1-(5-(Isoxazol-4-yl)isochroman-1-yl)-N-methylmethanamine hydrochloride salt] | ++ (5% ≤ ++ <25%) | + (LOQ ≤ + <5%) | + (LOQ ≤ + <5%) | ++ (5% ≤ ++ <25%) | ++++ (50% ≤ ++++) | + (LOQ ≤ + <5%) | ++ (5% ≤ ++ <25%) | ++ (5% ≤ ++ <25%) | ++ (5% ≤ ++ <25%)
8 | CNC[C@@H]1OCCc2c(-c3ccno3)cccc21 [Compound 94, (R)-1-(5-(Isoxazol-5-yl)isochroman-1-yl)-N-methylmethanamine] | + (LOQ ≤ + <5%) | + (LOQ ≤ + <5%) | + (LOQ ≤ + <5%) | + (LOQ ≤ + <5%) | + (LOQ ≤ + <5%) | + (LOQ ≤ + <5%) | + (LOQ ≤ + <5%) | + (LOQ ≤ + <5%) | + (LOQ ≤ + <5%)
9 | CNC[C@H]1OCCc2c(-c3ccno3)cccc21 [Compound 95, (S)-1-(5-(Isoxazol-5-yl)isochroman-1-yl)-N-methylmethanamine] | ++++ (50% ≤ ++++) | + (LOQ ≤ + <5%) | ++ (5% ≤ ++ <25%) | + (LOQ ≤ + <5%) | ++++ (50% ≤ ++++) | + (LOQ ≤ + <5%) | + (LOQ ≤ + <5%) | ++ (5% ≤ ++ <25%) | ++ (5% ≤ ++ <25%)
10 | NC[C@@H]1OCCc2c(-c3cocn3)cccc21 [Compound 100, (R)-(5-(oxazol-4-yl)isochroman-1-yl)methanamine HCl salt] | + (LOQ ≤ + <5%) | + (LOQ ≤ + <5%) | ++ (5% ≤ ++ <25%) | + (LOQ ≤ + <5%) | + (LOQ ≤ + <5%) | + (LOQ ≤ + <5%) | + (LOQ ≤ + <5%) | + (LOQ ≤ + <5%) | ++++ (50% ≤ ++++)
